Reference: article PMC8897147 (Acta Pharmaceutica Sinica. B, 2021)
Entries after “also recorded” stand apart in the source; their conditions may differ. Read-outs that look alike come from different tables or passages of the source. Values belong to the compound of their own block, whether it stands above or below them.

Tests used:
[1] = target: T1, GHRHR (Homo sapiens, UniProt Q02643); test: cAMP accumulation; conditions: COS-7, COS-7, % of max, receptor only, mean ± SEM n≥3
T1 sequence (Q02643 23-423): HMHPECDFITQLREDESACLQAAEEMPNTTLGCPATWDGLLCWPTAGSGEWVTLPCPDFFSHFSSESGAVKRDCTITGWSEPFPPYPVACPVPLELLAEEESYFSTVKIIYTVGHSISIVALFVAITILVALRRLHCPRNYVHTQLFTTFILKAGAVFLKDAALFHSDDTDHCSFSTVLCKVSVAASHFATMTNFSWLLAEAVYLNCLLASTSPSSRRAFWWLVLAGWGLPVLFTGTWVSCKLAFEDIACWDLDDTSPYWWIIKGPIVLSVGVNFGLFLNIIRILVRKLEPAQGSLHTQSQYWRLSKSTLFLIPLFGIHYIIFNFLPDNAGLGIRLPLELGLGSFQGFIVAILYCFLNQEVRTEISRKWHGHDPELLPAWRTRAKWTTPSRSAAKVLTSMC

[2] = target: T2, SV1 (Homo sapiens, UniProt Q02643); test: cAMP accumulation; conditions: COS-7, COS-7, % of max, receptor only, mean ± SEM n≥3
T2 sequence (Q02643 90-423 limits assumed): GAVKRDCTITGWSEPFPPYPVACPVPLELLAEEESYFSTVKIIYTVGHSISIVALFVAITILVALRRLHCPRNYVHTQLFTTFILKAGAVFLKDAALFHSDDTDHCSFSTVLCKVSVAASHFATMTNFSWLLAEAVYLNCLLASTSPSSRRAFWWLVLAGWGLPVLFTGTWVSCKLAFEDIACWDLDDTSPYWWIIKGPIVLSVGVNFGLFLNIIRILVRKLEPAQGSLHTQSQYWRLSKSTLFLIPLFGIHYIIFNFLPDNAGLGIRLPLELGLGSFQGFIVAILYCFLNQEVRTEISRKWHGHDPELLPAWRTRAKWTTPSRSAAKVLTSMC

[3] = target: T1, GHRHR; test: Gαq activation; conditions: HEK293-A, HEK293A, % of max, receptor only, mean ± SEM n≥3
[4] = target: T2, SV1; test: Gαq activation; conditions: HEK293A; no RAMP; data not shown
[5] = target: T1, GHRHR; test: β-Arrestin1 recruitment; conditions: COS-7, COS-7, % of max, receptor only, mean ± SEM n≥3
[6] = target: T2, SV1; test: β-Arrestin1 recruitment; conditions: COS-7, COS-7, % of max, receptor only, mean ± SEM n≥3
[7] = tested on: β2-AR; test: cAMP accumulation; conditions: COS-7, mean ± SEM n≥3
[8] = tested on: β2-AR; test: Gαq activation; conditions: HEK293A, mean ± SEM n≥3
[9] = tested on: β2-AR; test: β-Arrestin1 recruitment; conditions: COS-7, mean ± SEM n≥3; for Emax: % of max, receptor only
[10] = tested on: β2-AR; test: β-Arrestin2 recruitment; conditions: COS-7, mean ± SEM n≥3; for Emax: % of max, receptor only
[11] = target: CLR (Homo sapiens, UniProt Q16602); test: BRET GPCR–RAMP interaction; format: binding; conditions: COS-7; receptor-Rluc8:RAMP-Ypet 1:0.25 to 1:16; pH 7.4, 37 °C; mean ± SEM n≥3
[12] = target: GCGR (Homo sapiens, UniProt P47871); test: BRET GPCR–RAMP interaction; format: binding; conditions: COS-7; receptor-Rluc8:RAMP-Ypet 1:0.25 to 1:16; pH 7.4, 37 °C; mean ± SEM n≥3
[13] = target: T1, GHRHR; test: BRET GPCR–RAMP interaction; format: binding; conditions: COS-7
[14] = target: T2, SV1; test: BRET GPCR–RAMP interaction; format: binding; conditions: COS-7; receptor-Rluc8:RAMP-Ypet 1:0.25 to 1:16; pH 7.4, 37 °C; mean ± SEM n≥3
[15] = target: T3, GIPR (Homo sapiens, UniProt P48546); test: BRET GPCR–RAMP interaction; format: binding; conditions: COS-7; receptor-Rluc8:RAMP-Ypet 1:0.25 to 1:16; pH 7.4, 37 °C; mean ± SEM n≥3
T3 sequence (P48546 22-466): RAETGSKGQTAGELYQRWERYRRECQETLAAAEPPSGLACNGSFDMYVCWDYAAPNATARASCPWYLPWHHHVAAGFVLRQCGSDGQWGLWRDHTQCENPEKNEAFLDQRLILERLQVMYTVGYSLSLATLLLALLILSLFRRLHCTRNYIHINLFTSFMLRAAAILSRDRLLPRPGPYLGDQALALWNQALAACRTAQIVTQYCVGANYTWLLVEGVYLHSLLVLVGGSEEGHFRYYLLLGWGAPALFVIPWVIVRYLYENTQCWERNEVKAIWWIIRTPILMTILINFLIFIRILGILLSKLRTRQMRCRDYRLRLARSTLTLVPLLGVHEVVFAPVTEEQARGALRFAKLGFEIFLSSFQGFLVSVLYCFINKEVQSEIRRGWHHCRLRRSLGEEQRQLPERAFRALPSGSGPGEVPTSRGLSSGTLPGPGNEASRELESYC

[16] = target: GLP-1R (Homo sapiens, UniProt P43220); test: BRET GPCR–RAMP interaction; format: binding; conditions: COS-7; receptor-Rluc8:RAMP-Ypet 1:0.25 to 1:16; pH 7.4, 37 °C; mean ± SEM n≥3
[17] = target: T4, GLP-2R (Homo sapiens, UniProt O95838); test: BRET GPCR–RAMP interaction; format: binding; conditions: COS-7
T4 sequence (O95838 1-553): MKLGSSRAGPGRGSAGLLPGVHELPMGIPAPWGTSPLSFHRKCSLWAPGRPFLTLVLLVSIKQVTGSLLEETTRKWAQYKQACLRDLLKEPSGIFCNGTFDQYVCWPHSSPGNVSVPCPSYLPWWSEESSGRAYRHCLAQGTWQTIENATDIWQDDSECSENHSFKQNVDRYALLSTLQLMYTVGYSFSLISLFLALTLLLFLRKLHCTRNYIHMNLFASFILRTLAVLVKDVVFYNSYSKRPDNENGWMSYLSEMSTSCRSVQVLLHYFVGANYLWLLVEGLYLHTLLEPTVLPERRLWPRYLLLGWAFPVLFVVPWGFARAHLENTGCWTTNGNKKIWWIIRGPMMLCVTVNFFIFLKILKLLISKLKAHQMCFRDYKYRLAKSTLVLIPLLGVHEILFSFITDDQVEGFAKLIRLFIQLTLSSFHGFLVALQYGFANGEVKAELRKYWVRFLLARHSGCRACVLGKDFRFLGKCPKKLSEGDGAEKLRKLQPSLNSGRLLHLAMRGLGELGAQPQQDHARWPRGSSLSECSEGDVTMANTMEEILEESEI

[18] = tested on: SCTR; test: BRET GPCR–RAMP interaction; format: binding; conditions: COS-7; receptor-Rluc8:RAMP-Ypet 1:0.25 to 1:16; pH 7.4, 37 °C; mean ± SEM n≥3
[19] = tested on: COS-7 cells; test: RAMP cell surface expression; format: cell-based; conditions: co-expression with SCTR, FLAG-RAMP
[20] = target: T1, GHRHR; conditions: HEK293T cells ref [11]; cited from earlier work
[21] = tested on: SCTR; test: cAMP accumulation; conditions: COS-7; vector (no RAMP); % of max, receptor only; mean ± SEM n≥3
[22] = tested on: SCTR; test: Gαq activation; conditions: HEK293A, % of max, receptor only, mean ± SEM n≥3
[23] = tested on: SCTR; test: β-Arrestin1 recruitment; conditions: COS-7, % of max, receptor only, mean ± SEM n≥3
[24] = tested on: SCTR; test: β-Arrestin2 recruitment; conditions: COS-7, % of max, receptor only, mean ± SEM n≥3
[25] = receptor-Rluc8:RAMP-Ypet 1:0.25 to 1:16, pH 7.4, 37 °C, mean ± SEM n≥3

GCGR, sequence (P47871 26-477, species assumed): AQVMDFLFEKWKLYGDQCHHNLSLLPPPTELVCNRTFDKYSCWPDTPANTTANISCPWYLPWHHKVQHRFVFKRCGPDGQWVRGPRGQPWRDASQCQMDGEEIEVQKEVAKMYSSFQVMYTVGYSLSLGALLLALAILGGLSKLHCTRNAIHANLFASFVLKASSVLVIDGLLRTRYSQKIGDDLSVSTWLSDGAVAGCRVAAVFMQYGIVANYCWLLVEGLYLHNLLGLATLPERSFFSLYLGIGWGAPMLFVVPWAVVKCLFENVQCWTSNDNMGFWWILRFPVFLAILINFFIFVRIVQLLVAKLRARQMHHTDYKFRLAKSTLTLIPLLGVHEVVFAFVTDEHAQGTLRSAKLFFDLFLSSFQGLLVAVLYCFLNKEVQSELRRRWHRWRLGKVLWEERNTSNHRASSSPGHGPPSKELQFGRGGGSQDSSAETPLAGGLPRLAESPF
GLP-1R, sequence (P43220 24-463): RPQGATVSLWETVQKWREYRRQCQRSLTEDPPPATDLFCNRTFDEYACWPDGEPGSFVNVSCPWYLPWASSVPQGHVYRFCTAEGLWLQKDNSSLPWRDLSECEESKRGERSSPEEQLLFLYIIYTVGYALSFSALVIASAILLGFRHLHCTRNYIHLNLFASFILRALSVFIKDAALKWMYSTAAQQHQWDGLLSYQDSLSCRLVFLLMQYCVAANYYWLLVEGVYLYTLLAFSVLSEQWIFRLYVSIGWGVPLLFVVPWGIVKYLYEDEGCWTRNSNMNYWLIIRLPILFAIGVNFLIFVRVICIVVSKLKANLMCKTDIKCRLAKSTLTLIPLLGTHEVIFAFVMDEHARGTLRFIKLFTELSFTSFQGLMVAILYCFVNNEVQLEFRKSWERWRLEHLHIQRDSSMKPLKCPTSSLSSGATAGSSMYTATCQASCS
CLR, sequence (Q16602 23-461): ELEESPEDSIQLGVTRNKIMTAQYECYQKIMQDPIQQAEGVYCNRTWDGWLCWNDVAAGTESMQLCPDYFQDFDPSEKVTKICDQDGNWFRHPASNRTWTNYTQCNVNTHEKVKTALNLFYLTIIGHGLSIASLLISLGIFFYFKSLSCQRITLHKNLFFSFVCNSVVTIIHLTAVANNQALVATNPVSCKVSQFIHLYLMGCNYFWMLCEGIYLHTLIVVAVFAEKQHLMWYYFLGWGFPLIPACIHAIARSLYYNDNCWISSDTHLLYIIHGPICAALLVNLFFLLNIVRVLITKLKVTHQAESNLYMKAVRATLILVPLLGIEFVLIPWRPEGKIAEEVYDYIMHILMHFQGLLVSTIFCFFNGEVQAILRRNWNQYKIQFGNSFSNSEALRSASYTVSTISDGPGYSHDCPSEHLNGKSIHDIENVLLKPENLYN

Emax ([1]; RAMP1): 104 ± 1.2% | Emax ([1]; RAMP2): 102 ± 1.4% | Emax ([1]; RAMP3): 100 ± 1.5% | Emax ([2]; RAMP1): 100 ± 3.4% | Emax ([2]; RAMP2): 102 ± 4.2% | Emax ([2]; RAMP3): 100 ± 2% | Emax ([2]; vector (no RAMP)): 100 ± 1.8% | Emax ([3]; RAMP1): 91.8 ± 8.3% | Emax ([3]; RAMP3): 87.9 ± 8% | Emax ([3]; vector (no RAMP)): 100 ± 6.9% | Gαq response, receptor alone [4]: did not affect Gαq response | Emax ([5]; RAMP1): 124 ± 42.2% | Emax ([5]; RAMP2): 124 ± 34% | Emax ([5]; RAMP3): 102 ± 45.7% | Emax ([5]; vector (no RAMP)): 100 ± 25.3% | Emax ([6]; RAMP1): 188 ± 36.8% | Emax ([6]; RAMP2): 182 ± 44.2% | Emax ([6]; RAMP3): 168 ± 49.1% | Emax ([6]; vector (no RAMP)): 100 ± 11.2%
Compound: CC[C@H](C)[C@H](NC(=O)[C@H](C)NC(=O)[C@H](CC(=O)O)NC(=O)[C@H](C)NC(=O)[C@@H](N)Cc1ccc(O)cc1)C(=O)N[C@@H](Cc1ccccc1)C(=O)N[C@H](C(=O)N[C@@H](CC(N)=O)C(=O)N[C@@H](CO)C(=O)N[C@@H](Cc1ccc(O)cc1)C(=O)N[C@@H](CCCNC(=N)N)C(=O)N[C@@H](CCCCN)C(=O)N[C@H](C(=O)N[C@@H](CC(C)C)C(=O)NCC(=O)N[C@@H](CCC(N)=O)C(=O)N[C@@H](CC(C)C)C(=O)N[C@@H](CO)C(=O)N[C@@H](C)C(=O)N[C@@H](CCCNC(=N)N)C(=O)N[C@@H](CCCCN)C(=O)N[C@@H](CC(C)C)C(=O)N[C@@H](CC(C)C)C(=O)N[C@@H](CCC(N)=O)C(=O)N[C@@H](CC(=O)O)C(=O)N[C@H](C(=O)N[C@@H](CCSC)C(=O)N[C@@H](CO)C(=O)N[C@@H](CCCNC(=N)N)C(=O)N[C@@H](CCC(N)=O)C(=O)N[C@@H](CCC(N)=O)C(=O)NCC(=O)N[C@@H](CCC(=O)O)C(=O)N[C@@H](CO)C(=O)N[C@@H](CC(N)=O)C(=O)N[C@@H](CCC(N)=O)C(=O)N[C@@H](CCC(=O)O)C(=O)N[C@@H](CCCNC(=N)N)C(=O)NCC(=O)N[C@@H](C)C(=O)N[C@@H](CCCNC(=N)N)C(=O)N[C@@H](C)C(=O)N[C@@H](CCCNC(=N)N)C(=O)N[C@@H](CC(C)C)C(N)=O)[C@@H](C)CC)C(C)C)[C@@H](C)O [GHRH, growth hormone-releasing hormone]

pEC50 ([7]; RAMP1): 9.6 ± 0.1 | pEC50 ([7]; RAMP2): 9.7 ± 0 | pEC50 ([7]; RAMP3): 9.7 ± 0.1 | pEC50 ([7]; vector (no RAMP)): 9.6 ± 0 | pEC50 ([8]; RAMP1): 6.5 ± 0.2 | pEC50 ([8]; RAMP2): 6.3 ± 0.4 | pEC50 ([8]; RAMP3): 6.9 ± 0.3 | pEC50 ([8]; vector (no RAMP)): 6.9 ± 0.2 | pEC50 ([9]; RAMP1): 6 ± 0.4 | pEC50 ([9]; RAMP2): 5.8 ± 0.5 | pEC50 ([9]; RAMP3): 6 ± 0.4 | pEC50 ([9]; vector (no RAMP)): 6.2 ± 0.3 | pEC50 ([10]; RAMP1): 6.7 ± 0.2 | pEC50 ([10]; RAMP2): 6.5 ± 0.2 | pEC50 ([10]; RAMP3): 6.4 ± 0.2 | pEC50 ([10]; vector (no RAMP)): 6.4 ± 0.1
Compound: (−)-Adrenaline
Emax ([9]; RAMP1): 77.3 ± 11.1% | Emax ([9]; RAMP2): 83.4 ± 15% | Emax ([10]; RAMP1): 79.1 ± 5.7% | Emax ([10]; RAMP2): 90 ± 5.4% | Emax ([10]; RAMP3): 79.2 ± 6.1%

Bmax (maximum measured BRET value) [11]: 0.460 ± 0.017 | Bmax (maximum measured BRET value) [12]: 1.149 ± 0.109 | interaction in words ([13]; BRET): readily observed | Bmax (maximum measured BRET value) [13, 25]: 1.122 ± 0.193 | Bmax (maximum measured BRET value) [14]: 1.364 ± 0.244 | Bmax (maximum measured BRET value) [15]: 1.316 ± 0.203 | Bmax (maximum measured BRET value) [16]: 2.039 ± 1.234 | Bmax (maximum measured BRET value) [17, 25]: Linear fit
Compound: receptor activity-modulating protein 1 [RAMP1]
interaction in words ([17]; BRET): poor interaction; also recorded: rather weak | Bmax (maximum measured BRET value) [18]: 0.573 ± 0.021 | RAMP cell surface expression [19]: promoted cell surface translocation | interaction in words [20]: insignificant

Compound: secretin
Emax [21]: 100 ± 1% | Emax ([22]; RAMP1): 127.7 ± 13.5% | Emax ([22]; RAMP3): 97.8 ± 21.1% | Emax ([22]; vector (no RAMP)): 100 ± 14.1% | Emax ([23]; RAMP1): 91.8 ± 3.6% | Emax ([23]; RAMP3): 69.1 ± 4.9∗∗ % | Emax ([23]; vector (no RAMP)): 100 ± 5.6% | Emax ([24]; RAMP1): 81 ± 6.2% | Emax ([24]; RAMP3): 67 ± 4.2∗∗ % | Emax ([24]; vector (no RAMP)): 100 ± 4%
